From article PMC6328587 (Nature Communications, 2019) come the findings set out here.

For one test, the target named is T1, p38α (Homo sapiens, UniProt Q16539).
T1 construct: SJFα PROTAC (13-atom linker, amide attachment) selectively degrades p38α; endogenous in cells; host or cells: MDA-MB-231
As to the kind of experiment: PROTAC-induced p38α degradation, western blot in MDA-MB-231 cells. The settings on record: 0.025-5.0 µM survey, ± one s.d., Supplementary Table 1; for DC50: biological duplicates. The test is classed as cell-based. The method, then: (§1) MDA-MB-231 and HeLa cells were obtained from the American Type Culture Collection (ATCC), cultured in RPMI-1640 medium (1 × ) and Dulbecco’s modified Eagle’s medium (DMEM; 1 × ), respectively, containing 10% fetal bovine serum and 1% penicillin–streptomycin and grown in a humidified incubator at 37 °C and 5% CO2.
(§2) […] once with ice-cold PBS (1 × ), followed by lysis in buffer containing 25 mM Tris [pH 7.5], 0.25% sodium deoxycholate, 1% Triton X-100, supplemented with 1X protease inhibitor cocktail (Roche), and phosphatase inhibitors (10 mM NaF, 1 mM Na3VO4, and 20 mM β-glycerophosphate), unless otherwise noted. Lysates were spun at 14,000 × g for 10 min at 4 °C and supernatant was evaluated for protein content using a Pierce BCA Protein Assay (ThermoFisher Scientific). In all experiments, 25–50 μg of protein was loaded onto 10% SDS-PAGE gels or 4–20% Criterion TGX precast gradient gels (Bio-Rad), transferred to nitrocellulose membranes, and probed with the specified antibodies overnight at 4 °C in 1X TBS-Tween (Tris-buffered saline plus 0.02% Tween 20) containing 5% non-fat milk. Immunoblots were visualized using a Bio-Rad ChemiDoc imaging instrument and subsequently processed and quantified using the accompanying Bio-Rad ImageLab software. See Supplementary Figure 8 for uncropped scans of western blots shown in the main text figures.
(§3) Western blot data in Figs. 2, 6, and Supplementary Figures 2, 3 were quantified by using the band feature in Image Lab (Bio-Rad). The p38 values were normalized to the α-tubulin signal to account for differences in protein load, and PROTAC-treated normalized values were expressed as a % of the vehicle-treated (no PROTAC) value, which itself was defined as 100% p38 protein level. […] The sigmoidal fit established both the full extent of degradation, or Dmax at the bottom asymptote of the curve, as well as the DC50, which is the inflection point at which 50% of the total degradation observed was reached.

In a further test the target is T2, p38δ (Homo sapiens, UniProt O15264).
T2 construct: endogenous in cells; host or cells: MDA-MB-231
T2 sequence (O15264 1-365): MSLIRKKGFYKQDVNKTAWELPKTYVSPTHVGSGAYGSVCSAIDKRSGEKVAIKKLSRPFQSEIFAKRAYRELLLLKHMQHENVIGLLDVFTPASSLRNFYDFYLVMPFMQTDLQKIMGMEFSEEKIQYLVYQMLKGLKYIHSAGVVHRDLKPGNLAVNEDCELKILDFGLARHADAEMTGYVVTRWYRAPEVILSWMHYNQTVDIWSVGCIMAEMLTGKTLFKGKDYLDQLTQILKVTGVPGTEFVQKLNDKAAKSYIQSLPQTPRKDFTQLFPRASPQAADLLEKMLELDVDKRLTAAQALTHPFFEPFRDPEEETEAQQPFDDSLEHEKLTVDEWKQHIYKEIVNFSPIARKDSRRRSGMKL
Description: PROTAC-induced p38δ degradation, western blot in MDA-MB-231 cells. The test is classed as cell-based. Particulars: 0.025-5.0 µM survey, ± one s.d., Supplementary Table 1; for DC50: biological duplicates. The method, then: as §1, §2, §3
On the technique in general: Immunoblotting shows a protein as a band on a membrane.

SMILES strings stand for the structures. Where “and” joins values, the source holds several entries; their conditions need not be identical. Identical values can stand only once. Where only a bound is given, the exact number is not on record here.

T1 sequence (Q16539 whole entry): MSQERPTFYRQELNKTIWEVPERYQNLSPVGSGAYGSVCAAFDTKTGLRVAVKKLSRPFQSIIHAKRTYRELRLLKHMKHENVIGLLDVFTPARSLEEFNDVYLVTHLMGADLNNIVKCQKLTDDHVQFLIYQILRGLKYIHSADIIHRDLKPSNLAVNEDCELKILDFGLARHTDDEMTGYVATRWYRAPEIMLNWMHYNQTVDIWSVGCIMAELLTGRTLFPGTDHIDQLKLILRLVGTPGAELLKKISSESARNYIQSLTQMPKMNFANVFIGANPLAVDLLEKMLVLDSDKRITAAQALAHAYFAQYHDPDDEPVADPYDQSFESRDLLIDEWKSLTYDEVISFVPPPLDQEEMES

On to `COc1cc2c(Oc3ccc(NC(=O)C4(C(=O)Nc5ccc(F)cc5)CC4)cc3F)ccnc2cc1OCCCOCCOCCC(=O)N[C@H](C(=O)N1C[C@H](O)C[C@H]1C(=O)NCc1ccc(-c2scnc2C)cc1)C(C)(C)C` [SJF-6690], for which the “Dmax p38α (maximum percentage of degradation)” value on p38α is reported as 99.4 ± 2.0%. Moreover, at p38δ, the DC50 (as a rule, the midpoint of the concentration-degradation curve) is < 100 nM and 91.7 nM; the “Dmax p38δ (maximum percentage of degradation)” value is 96.7 ± 3.7%.

On to `COc1cc2c(Oc3ccc(NC(=O)C4(C(=O)Nc5ccc(F)cc5)CC4)cc3F)ccnc2cc1OCCCOCCCOCCCOc1cc(-c2scnc2C)ccc1CNC(=O)C1CC(O)CN1C(=O)C(C(C)C)N1Cc2ccccc2C1=O` (centres unmarked) [SJF-6685], for which the figures for the DC50 at p38α and on p38δ were 304 ± 691 nM and 1140 ± 1950 nM, respectively. Moreover, on p38δ, the “Dmax p38δ (maximum percentage of degradation)” value turned out to be 33.5 ± 27.2%.

`COc1cc2c(Oc3ccc(NC(=O)C4(C(=O)Nc5ccc(F)cc5)CC4)cc3F)ccnc2cc1OCCCOCCCOCCC(=O)N[C@H](C(=O)N1C[C@H](O)C[C@H]1C(=O)NCc1ccc(-c2scnc2C)cc1)C(C)(C)C`: at p38α, it took 230 ± 47 nM to reach half-maximal degradation (DC50) and the “Dmax p38α (maximum percentage of degradation)” value is recorded as 90.1 ± 4.2%. The molecule further came in with a DC50 on p38δ of 456 ± 362 nM.

Regarding `COc1cc2c(Oc3ccc(NC(=O)C4(C(=O)Nc5ccc(F)cc5)CC4)cc3F)ccnc2cc1OCCOCCOCCC(=O)N[C@H](C(=O)N1C[C@H](O)C[C@H]1C(=O)NCc1ccc(-c2scnc2C)cc1)C(C)(C)C` [SJF-6693], on p38α, the “Dmax p38α (maximum percentage of degradation)” value was found to be 92.6 ± 2.8%. Moreover, at p38δ, the DC50 is < 100 nM and 51.4 nM; the “Dmax p38δ (maximum percentage of degradation)” value is 81.8 ± 1.9%.

With `COc1cc2c(Oc3ccc(NC(=O)C4(C(=O)Nc5ccc(F)cc5)CC4)cc3F)ccnc2cc1OCCCCOCCCCOc1cc(-c2scnc2C)ccc1CNC(=O)C1CC(O)CN1C(=O)C(C(C)C)N1Cc2ccccc2C1=O` (centres unmarked) [SJF-6677], at p38α, the DC50 came out at 127 ± 163 nM; the “Dmax p38α (maximum percentage of degradation)” value was < 50% and 25.3 ± 6.6%. Also, at p38δ, half-maximal degradation (DC50) was put at 106 ± 81.5 nM; the “Dmax p38δ (maximum percentage of degradation)” value was < 50% and 43.5 ± 7.2%.

`COc1cc2c(Oc3ccc(NC(=O)C4(C(=O)Nc5ccc(F)cc5)CC4)cc3F)ccnc2cc1OCCCOCCOCCCOc1cc(-c2scnc2C)ccc1CNC(=O)C1CC(O)CN1C(=O)C(C(C)C)N1Cc2ccccc2C1=O` (centres unmarked) [BES-4612]: at p38α, it took 760 ± 1500 nM to reach half-maximal degradation (DC50) and the “Dmax p38α (maximum percentage of degradation)” value is on record as 16.8 ± 13.4%. In addition, on p38δ, the DC50 amounted to 1890 ± 2350 nM and the “Dmax p38δ (maximum percentage of degradation)” value was determined as 78.7 ± 40.8%.
